Like-named read-outs stand apart in the source and are kept apart here.
How the values were obtained:
[1] = target: human α2δ-1 subunit of Cav2.2 calcium channel (Homo sapiens (Human), UniProt P54289); test: Binding assay to human α2δ-1 subunit of Cav2.2 calcium channel ([3H]-Gabapentin); conditions: read-out: Ki (nM) α2δ-1
Method in brief: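 [3H]-gabapentin binding, 60 min at 27° C; nonspecific binding defined with 10 μM pregabalin. Terminated by filtration on PEI-presoaked GF/C filters, ice-cold 50 mM Tris-HCl pH 7.4 washes, then scintillation counting.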

[2] = target: human norepinephrine transporter (NET) (Homo sapiens (Human), UniProt P23975); test: Binding assay to human norepinephrine transporter (NET) ([3H]-Nisoxetin); conditions: Table 2, dual compounds; [3H]-Nisoxetin binding
Protocol: Binding Assay to Human Norepinephrine Transporter (NET).
Human norepinephrine transporter (NET) enriched membranes (5 μg) were incubated with 5 nM of radiolabeled [3H]-Nisoxetin in assay buffer containing 50 mM Tris-HCl, 120 mM NaCl, 5 mM KCl, pH 7.4.
NSB (non specific binding) was measured by adding 1 μM. After 60 min incubation at 4° C., binding reaction was terminated by filtering through Multiscreen GF/C (Millipore) presoaked in 0.5% polyethyleneimine in Vacuum Manifold Station, followed by 3 washes with ice-cold filtration buffer containing 50 mM Tris-HCl, 0.9% NaCl, pH 7.4.
Filter plates were dried at 60° C. for 1 hour and 30 μl of scintillation cocktail were added to each well before radioactivity reading.

[3] = Table 2, dual compounds, [3H]-Gabapentin binding
[4] = binding to α2δ-1, [3H]-Gabapentin

human α2δ-1 subunit of Cav2.2 calcium channel, sequence (P54289 25-1103): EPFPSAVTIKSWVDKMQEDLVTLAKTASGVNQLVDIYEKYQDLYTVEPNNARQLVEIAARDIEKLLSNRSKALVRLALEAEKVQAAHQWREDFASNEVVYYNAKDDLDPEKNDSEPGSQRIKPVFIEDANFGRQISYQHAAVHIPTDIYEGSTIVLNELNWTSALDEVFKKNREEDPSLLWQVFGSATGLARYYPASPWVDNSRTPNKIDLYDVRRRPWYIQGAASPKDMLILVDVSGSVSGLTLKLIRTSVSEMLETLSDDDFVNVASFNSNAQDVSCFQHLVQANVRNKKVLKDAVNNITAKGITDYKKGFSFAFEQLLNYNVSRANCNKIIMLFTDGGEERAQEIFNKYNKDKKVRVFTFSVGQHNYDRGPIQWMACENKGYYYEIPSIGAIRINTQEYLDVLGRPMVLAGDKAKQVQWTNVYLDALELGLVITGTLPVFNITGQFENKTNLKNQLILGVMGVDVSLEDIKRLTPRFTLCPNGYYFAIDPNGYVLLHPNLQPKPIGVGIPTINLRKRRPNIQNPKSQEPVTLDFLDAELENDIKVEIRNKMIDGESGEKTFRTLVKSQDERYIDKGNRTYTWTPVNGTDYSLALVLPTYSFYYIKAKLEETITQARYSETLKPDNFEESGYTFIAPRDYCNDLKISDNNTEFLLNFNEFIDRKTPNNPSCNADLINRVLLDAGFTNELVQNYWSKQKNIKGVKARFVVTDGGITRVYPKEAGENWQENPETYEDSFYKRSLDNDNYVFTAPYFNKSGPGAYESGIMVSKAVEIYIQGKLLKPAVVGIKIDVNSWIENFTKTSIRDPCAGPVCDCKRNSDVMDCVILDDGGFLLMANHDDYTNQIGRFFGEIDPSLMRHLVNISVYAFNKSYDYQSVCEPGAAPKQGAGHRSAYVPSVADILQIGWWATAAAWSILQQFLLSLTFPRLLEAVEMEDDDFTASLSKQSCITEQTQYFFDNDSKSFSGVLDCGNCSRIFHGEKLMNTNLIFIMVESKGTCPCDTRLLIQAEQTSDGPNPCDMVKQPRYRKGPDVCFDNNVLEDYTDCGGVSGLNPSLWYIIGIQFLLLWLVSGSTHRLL
human norepinephrine transporter (NET), sequence (P23975 whole entry): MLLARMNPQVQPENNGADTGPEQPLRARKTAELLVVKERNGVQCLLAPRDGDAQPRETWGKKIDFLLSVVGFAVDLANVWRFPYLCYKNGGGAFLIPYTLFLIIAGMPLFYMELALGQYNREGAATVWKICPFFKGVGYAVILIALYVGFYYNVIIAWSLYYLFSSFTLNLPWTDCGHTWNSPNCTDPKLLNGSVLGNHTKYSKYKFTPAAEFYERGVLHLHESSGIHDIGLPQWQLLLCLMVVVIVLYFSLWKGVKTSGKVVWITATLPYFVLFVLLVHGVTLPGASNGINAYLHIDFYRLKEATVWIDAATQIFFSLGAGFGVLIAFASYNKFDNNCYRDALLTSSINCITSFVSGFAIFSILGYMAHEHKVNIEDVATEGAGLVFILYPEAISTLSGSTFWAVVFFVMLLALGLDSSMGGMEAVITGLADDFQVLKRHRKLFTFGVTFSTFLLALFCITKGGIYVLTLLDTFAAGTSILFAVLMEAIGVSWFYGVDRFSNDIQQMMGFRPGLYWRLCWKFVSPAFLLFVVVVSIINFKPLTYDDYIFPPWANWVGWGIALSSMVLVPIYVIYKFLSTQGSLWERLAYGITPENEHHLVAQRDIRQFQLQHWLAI

Structure (SMILES)	Ki [1, 3] [nM]	Ki [1, 4] [nM]	Ki [2] [nM]
CCNc1ncc2c(n1)N(C)CCN(c1cccc(-n3cc(CN(C)Cc4ccccn4)nn3)c1)C2=O [Example 288, 2-(ethylamino)-9-methyl-6-(3-(4-((methyl(pyridin-2-ylmethyl)amino)methyl)-1H-1,2,3-triazol-1-yl)phenyl)-6,7,8,9-tetrahydro-5H-pyrimido[4,5-e][1,4]diazepin-5-one]	500 to 3000	500 to 3000	100 to 500
CNCC[C@H](Oc1cccc(N2CCN(C)c3cc(N)ncc3C2=O)c1)c1cccs1 [Example 304, (S)-8-amino-1-methyl-4-(3-(3-(methylamino)-1-(thiophen-2-yl)propoxy)phenyl)-1,2,3,4-tetrahydro-5H-pyrido[4,3-e][1,4]diazepin-5-one]	100 to 500	100 to 500	100 to 500
CNCC[C@H](Oc1ccc(CN2CCN(C)c3cc(C)ncc3C2=O)cc1)c1cccs1 [Example 308, (S)-1,8-dimethyl-4-(4-(3-(methylamino)-1-(thiophen-2-yl)propoxy)benzyl)-1,2,3,4-tetrahydro-5H-pyrido[4,3-e][1,4]diazepin-5-one]	100 to 500	100 to 500	100 to 500
CNCCC(OCc1ccc(N2CCN(C)c3nc(SC)ncc3C2=O)cc1)c1ccccc1 (stereo not drawn) [Example 315, 9-methyl-6-(4-((3-(methylamino)-1-phenylpropoxy)methyl)phenyl)-2-(methylthio)-6,7,8,9-tetrahydro-5H-pyrimido[4,5-e][1,4]diazepin-5-one]	> 3000	> 3000	< 100
CNCC(OCc1ccc(N2CCN(C)c3nc(SC)ncc3C2=O)cc1)c1ccccc1 (stereo not drawn) [Example 321, 9-methyl-6-(4-((2-(methylamino)-1-phenylethoxy)methyl)phenyl)-2-(methylthio)-6,7,8,9-tetrahydro-5H-pyrimido[4,5-e][1,4]diazepin-5-one]	> 3000	> 3000	< 100
CNCCC(OCc1ccc(N2CCN(C)c3nc(SC)ncc3C2=O)cc1)c1cccs1 (stereo not drawn) [Example 328, 9-methyl-6-(4-((3-(methylamino)-1-(thiophen-2-yl)propoxy)methyl)phenyl)-2-(methylthio)-6,7,8,9-tetrahydro-5H-pyrimido[4,5-e][1,4]diazepin-5-one]	> 3000	> 3000	< 100
CNCCC(OCc1cccc(N2CCN(C)c3nc(C(F)(F)F)ncc3C2=O)c1)c1cccs1 (stereo not drawn) [Example 330, 9-methyl-6-(3-((3-(methylamino)-1-(thiophen-2-yl)propoxy)methyl)phenyl)-2-(trifluoromethyl)-6,7,8,9-tetrahydro-5H-pyrimido[4,5-e][1,4]diazepin-5-one]	500 to 3000	500 to 3000	100 to 500
CNCCC(OCc1cccc(N2CCN(C)c3nc(NCc4ccccc4)ncc3C2=O)c1)c1ccccc1 (stereo not drawn) [Example 335, 2-(benzylamino)-9-methyl-6-(3-((3-(methylamino)-1-phenylpropoxy)methyl)phenyl)-6,7,8,9-tetrahydro-5H-pyrimido[4,5-e][1,4]diazepin-5-one]	500 to 3000	500 to 3000	< 100
CNCCC(OCc1cccc(N2CCN(C)c3nc(N(C)Cc4ccccn4)ncc3C2=O)c1)c1ccccc1 (stereo not drawn) [Example 336, 9-methyl-2-(methyl(pyridin-2-ylmethyl)amino)-6-(3-((3-(methylamino)-1-phenylpropoxy)methyl)phenyl)-6,7,8,9-tetrahydro-5H-pyrimido[4,5-e][1,4]diazepin-5-one]	500 to 3000	500 to 3000	100 to 500
CCNc1ncc2c(n1)N(C)CCN(c1ccc(COC(CNC)c3ccccc3)cc1)C2=O (stereo not drawn) [Example 340, 2-(ethylamino)-9-methyl-6-(4-((2-(methylamino)-1-phenylethoxy)methyl)phenyl)-6,7,8,9-tetrahydro-5H-pyrimido[4,5-e][1,4]diazepin-5-one]	> 3000	> 3000	< 100

Further lines, results first:

Ki [1, 3] [nM]	Ki [1, 4] [nM]	Ki [2] [nM]	Structure (SMILES)
500 to 3000	500 to 3000	< 100	CCNc1ncc2c(n1)N(C)CCN(c1cccc(-n3cc(CN(C)Cc4ccc(F)cc4)nn3)c1)C2=O [Example 287, 2-(ethylamino)-6-(3-(4-(((4-fluorobenzyl)(methyl)amino)methyl)-1H-1,2,3-triazol-1-yl)phenyl)-9-methyl-6,7,8,9-tetrahydro-5H-pyrimido[4,5-e][1,4]diazepin-5-one]
100 to 500	100 to 500	100 to 500	CNCC[C@H](Oc1ccc(CN2CCN(C)c3cc(N)ncc3C2=O)cc1)c1cccs1 [Example 305, (S)-8-amino-1-methyl-4-(4-(3-(methylamino)-1-(thiophen-2-yl)propoxy)benzyl)-1,2,3,4-tetrahydro-5H-pyrido[4,3-e][1,4]diazepin-5-one]
100 to 500	100 to 500	100 to 500	CNCCC(Oc1cccc(N2CCN(C)c3cc(C)ncc3C2=O)c1)c1cccs1 (stereo not drawn) [Example 307, 1,8-dimethyl-4-(3-(3-(methylamino)-1-(thiophen-2-yl)propoxy)phenyl)-1,2,3,4-tetrahydro-5H-pyrido[4,3-e][1,4]diazepin-5-one]
> 3000	> 3000	500 to 1000	CNCCC(Oc1ccc(N2CCN(C)c3nc(SC)ncc3C2=O)cc1)c1ccccc1 (stereo not drawn) [Example 316, 9-methyl-6-(4-(3-(methylamino)-1-phenylpropoxy)phenyl)-2-(methylthio)-6,7,8,9-tetrahydro-5H-pyrimido[4,5-e][1,4]diazepin-5-one]
> 3000	> 3000	100 to 500	CNCCC(OCc1cccc(N2CCN(C)c3nc(C(F)(F)F)ncc3C2=O)c1)c1ccccc1 (stereo not drawn) [Example 322, 9-methyl-6-(3-((3-(methylamino)-1-phenylpropoxy)methyl)phenyl)-2-(trifluoromethyl)-6,7,8,9-tetrahydro-5H-pyrimido[4,5-e][1,4]diazepin-5-one]
100 to 500	100 to 500	100 to 500	CNCC[C@@H](OCc1cccc(N2CCN(C)c3nc(N(C)Cc4ccccn4)ncc3C2=O)c1)c1ccccc1 [Example 341, (R)-9-methyl-2-(methyl(pyridin-2-ylmethyl)amino)-6-(3-((3-(methylamino)-1-phenylpropoxy)methyl)phenyl)-6,7,8,9-tetrahydro-5H-pyrimido[4,5-e][1,4]diazepin-5-one]
100 to 500	100 to 500	100 to 500	CNCC[C@@H](OCc1cccc(N2CCN(C)c3nc(N(C)Cc4cccnc4)ncc3C2=O)c1)c1ccccc1 [Example 342, (R)-9-methyl-2-(methyl(pyridin-3-ylmethyl)amino)-6-(3-((3-(methylamino)-1-phenylpropoxy)methyl)phenyl)-6,7,8,9-tetrahydro-5H-pyrimido[4,5-e][1,4]diazepin-5-one]
100 to 500	100 to 500	100 to 500	CNCC[C@@H](OCc1cccc(N2CCN(C)c3nc(NCc4ccccn4)ncc3C2=O)c1)c1ccccc1 [Example 343, (R)-9-methyl-6-(3-((3-(methylamino)-1-phenylpropoxy)methyl)phenyl)-2-((pyridin-2-ylmethyl)amino)-6,7,8,9-tetrahydro-5H-pyrimido[4,5-e][1,4]diazepin-5-one]

Source: patent US10590140B2, “Tetrahydropyrimidodiazepine and dihydropyridodiazepine compounds for treating pain and pain related conditions” (ESTEVE PHARMACEUTICALS, S.A., priority 2016, dated 2020)
